# US20050282889A1, “Intracorporeal medicaments for photodynamic treatment of disease” (priority 1996, published 2005)
# What was measured:
# [1] = Absorbance properties of halogenated xanthenes (λmax, α); format: physicochemical
# From the text: Certain general properties of this class of agents are discussed in further detail in U.S. Ser. No. 09/130,041, filed on Aug. 6, 1998, U.S. Ser. No. 09/184,388, filed on Nov. 2, 1998, and U.S. Ser. No. 09/216,787, filed on Dec. 21, 1998, which are herein incorporated by reference in their entirety.
# [2] = Photochemical quantum yields (triplet, singlet oxygen); format: physicochemical
# [3] = Partition coefficient Kp, n-octanol / phosphate buffered saline; format: physicochemical; conditions: ratio of equilibrium concentrations, n-octanol vs PBS pH=7.4
# Protocol: Kp is determined by measuring the ratio of equilibrium concentrations of an agent in a lipophilic phase (n-octanol) contacted with an aqueous phase (phosphate buffered saline, PBS, pH=7.4).
# [4] = system: Renal Adenocarcinoma; assay: Intratumoral injection plus light, murine tumor model; format: in vivo; conditions: i.t. ICG medicament, tumor 3 × 4 × 5 mm; for No. Tumors Cured: 4 treated
# [5] = Retention of agent after intratumoral or peritumoral injection; conditions: intratumoral injection (ICG: within 24 hours)
# Protocol: Initially, tumor cell suspensions (e.g. melanoma, breast tumor, liver tumor, renal carcinoma, gall bladder tumor or prostate tumor) were injected subcutaneously into the flanks of nude mice resulting in formation of primary tumors, within a few weeks, at the injection site having a volume of approximately 0.1 cm^3 to 0.5 cm^3.
Compound,λmax (nm) EtOH [1],λmax (nm) H2O [1],φ (singlet oxygen) EtOH [2],φ (singlet oxygen) H2O [2],α [1],λmax (nm) MeOH [1],φ (singlet oxygen) MeOH [2],also measured
"O=C1OC2(c3ccccc31)c1cc(Cl)c(O)c(Cl)c1Oc1c2cc(Cl)c(O)c1Cl [2′,4′,5′,7′-Tetrachlorofluorescein]",520 nm,510 nm,0.05,0.05,,,,
"O=C1OC2(c3cc(Cl)c(O)cc3Oc3cc(O)c(Cl)cc32)c2ccccc21 [2′,7′-Dichlorofluorescein]",511 nm,502 nm,0.07,0.04,,,,
"O=C1OC2(c3ccc(O)cc3Oc3cc(O)ccc32)c2c(Cl)c(Cl)c(Cl)c(Cl)c21 [4,5,6,7-Tetrachlorofluorescein]",,515 nm,,,29000 L/cm/mol,,,
"O=C1OC2(c3ccccc31)c1ccc(O)c(Cl)c1Oc1c2ccc(O)c1Cl [4′,5′-Dichlorofluorescein]",511 nm,502 nm,0.07,0.04,,,,
O=C(O)c1ccccc1-c1c2cc([N+](=O)[O-])c(=O)c(Br)c-2oc2c(Br)c(O)c([N+](=O)[O-])cc12 [Eosin B],,522 nm,,,39000 L/cm/mol,,,
O=C([O-])c1ccccc1-c1c2cc(Br)c(=O)c(Br)c-2oc2c(Br)c([O-])c(Br)cc12.[Na+].[Na+] [Eosin Y],523 nm,517 nm,0.57,0.32,91000 L/cm/mol,527 nm,0.39,φ (triplet) MeOH [2]: 0.28
O.O=C([O-])c1ccccc1-c1c2cc(I)c(=O)c(I)c-2oc2c(I)c([O-])c(I)cc12.[Na+].[Na+] [Erythrosin B],532 nm,528 nm,0.63,0.69,91000 L/cm/mol,529 nm,0.62,Kp (partition coefficient) [3]: 1.9; φ (triplet) MeOH [2]: 0.62
CCOC(=O)c1ccccc1-c1c2cc(Br)c(=O)c(Br)c-2oc2c(Br)c([O-])c(Br)cc12.[K+] [Ethyl Eosin],532 nm,,,,11000 L/cm/mol,,,
O=C1OC2(c3ccc(O)cc3Oc3cc(O)ccc32)c2ccccc21 [Fluorescein],499 nm,490 nm,0.03,0.03,64000 L/cm/mol,492 nm,0.09,φ (triplet) MeOH [2]: 0.03
"CC1(C)C(/C=C/C=C/C=C/C=C2\N(CCCCS(=O)(=O)O)c3ccc4ccccc4c3C2(C)C)=[N+](CCCCS(=O)(=O)[O-])c2ccc3ccccc3c21 [Indocyanine Green, reference compound]",,,,,,,,"Cure Rate ([4]; No Light control, 0 J/cm^2): 0%; No. Tumors Cured ([4]; No Light control, 0 J/cm^2): 0; Cure Rate ([4]; 50 J/cm^2 805 nm): 0%; No. Tumors Cured ([4]; 50 J/cm^2 805 nm): 0; Tissue localization after i.t. administration [5]: substantively migrated out of the tumor"
O=C([O-])c1c(Cl)c(Cl)c(Cl)c(Cl)c1-c1c2cc(Br)c(=O)c(Br)c-2oc2c(Br)c([O-])c(Br)cc12.[Na+].[Na+] [Phloxine B],548 nm,541 nm,0.63,0.40,100000 L/cm/mol,547 nm,,Kp (partition coefficient) [3]: 1.1
CCN(CC)CC.CCN(CC)CC.O=C(O)c1c(Cl)c(Cl)c(Cl)c(Cl)c1-c1c2cc(I)c(=O)c(I)c-2oc2c(I)c(O)c(I)cc12 [Rose Bengal Derivative II],,,,,,,0.72,
CCN(CC)CC.CCOC(=O)c1c(Cl)c(Cl)c(Cl)c(Cl)c1-c1c2cc(I)c(=O)c(I)c-2oc2c(I)c(O)c(I)cc12 [Rose Bengal Derivative I],563 nm,,,,,,0.74,
O=C1OC2(c3ccccc31)c1ccc(O)c(Br)c1Oc1c2ccc(O)c1Br [Solvent Red 72],,,,,14000 L/cm/mol,450 nm,,
Dibromofluorescein,510 nm,504 nm,0.42,0.32,14000 L/cm/mol,,,
Diiodofluorescein,513 nm,506 nm,0.48,0.33,58000 L/cm/mol,,,
